A word on the melting point: it is the temperature of the solid-liquid transition.

As for `Nc1ccc(S(=O)(=O)CI)cc1`, the melting point was in the range of 170 to 172 °C.
Regarding `COc1cc(Nc2ccccn2)ccc1C(N)=O`, the melting point is 226 to 227 °C.
The value for `CCO[C@@H]1c2ccc3c(nc(C)n3C)c2O[C@H](c2ccccc2)[C@H]1O` was 222 °C; that for `COc1ccc(CCNC(=O)Nc2ccccc2CCc2cc(C(C)(C)C)c(O)c(C(C)(C)C)c2)cc1OC` was 158 to 160 °C; that for `O=C(O)CCc1ccc(OCCN2CCCC2=O)cc1Oc1ncc(C(F)(F)F)cc1Cl` was 145 to 146 °C.
The value for `O=C(Nc1ccc(F)cc1F)c1nccnc1Oc1cccc(C(F)(F)F)c1` was 107 to 109 °C.
`O[C@H](CCl)COc1ccc(OCc2ccccc2)cc1`: the melting point is 78 to 80 °C.
`COc1ccc(S(=O)(=O)Nc2nc(-c3cccc([N+](=O)[O-])c3)cs2)cc1` had a melting point of 157 to 159 °C.
Consider `CN(C)C(=NC(=O)C(O)(C(N)=O)c1ccc(Cl)c(Cl)c1)N(C)C` (configuration not stated), for which the melting point is 98 to 100 °C.
On to `O=C(O)C(CBr)(CBr)CBr`, for which the melting point lay in the range of 83 to 86 °C.
The compound `CC(C)(C)OC(=O)NCCNCCNC(=O)OC(C)(C)C` yielded a melting point of 69 to 71 °C.
The compound `CCN(C(=O)C1CC1)c1cccc(-c2ccnc3ccnn23)c1` returned a melting point of 127 to 129 °C.
The compound `CCC12CCCN3CCC4(C(=C(C(=O)OC)C1)Nc1ccccc14)C32` (configuration not stated) displayed a melting point of 124 to 125 °C.
Under `CCOC(=O)C1(CCCCOc2ccc(C(=O)OC)cc2)Cc2c(OC)c(OC)c(OC)c(OC)c2C1=O` (configuration not stated) stands 116 to 118 °C; under `O=C(CNc1ccc(F)cc1)Nc1c(Cl)ccc2nc(N3CC[C@@H](O)C3)ccc12`, 242 to 246 °C.
Turning to `CC(C)(C)C(=O)OCOC(=O)Cc1ccc(O)cc1`, the melting point fell in the range of 159 to 161 °C.
Compound `CCCCc1nccc2c([N+](=O)[O-])cccc12` registered a melting point of 69 to 69.5 °C.
The value for `CC(=O)Nc1cccc(C(C)(C)O)c1CO` was 138 °C.
The compound `CCCCCCCCCCCCCCCCCNC(=O)O[C@@H]1CCCO[C@H]1CO` (relative stereo) displayed a melting point of 84 to 86 °C.
`CN(CCO)C(=O)Cn1nc(-c2ccccc2O)nc1-c1ccccc1O`: the melting point was in the range of 101 to 104 °C.
In turn, `CC(C=O)=CC=CC(C)=CC=CC=C(C)C1OCC(C)(C)CO1` had a melting point of 140 °C.
Under `COCCN1CCc2ccc(Nc3ncc(Cl)c(Nc4ccc(OC)c5c4C(=O)N(C)C5)n3)cc2CC1` stands 206 to 207 °C.
Consider `COc1ccc(-c2cccs2)c2c1c(CCN(C)C)cn2C`, for which the melting point was 131 to 133 °C.
`Clc1cc(I)ccc1CBr`: the melting point lay within 44 to 45.5 °C.
Regarding `Nc1c(F)cc(Cl)cc1C(O)(C#CC1CC1)C(F)(F)F` (configuration not stated), the melting point lay in the range of 131 to 135 °C.
For the compound `COc1ccc2ccc(N3C(=O)c4ccccc4C3CC(=O)CCCO)nc2n1` (configuration not stated), the melting point came out at 152 °C.
Under `Cc1ccc2c(c1)[nH]c(=O)n2CCCN1CCN(C(c2ccccc2)c2ccccc2)CC1` stands 178 °C; under `COc1ccc(-c2c(-c3ccc(S(N)(=O)=O)cc3)[nH]c3ccccc23)cc1`, 280 to 282 °C; under `CCCc1c(O)cccc1Oc1ccccc1C(=O)OC`, 80 °C.
The compound `O=C(Nc1ccc2ccc(-c3ccc(Cl)cc3)nc2n1)c1cccc(Cl)c1` gave a melting point of 222 to 224 °C.
`Cc1cccc(-c2nc(-c3ccc(S(C)=O)cc3)sc2-c2cc(C)nc(C)c2)c1` (configuration not stated): the melting point lay within 133 to 134 °C.
Regarding `COc1ccc2c(c1)C1(CCN(Cc3ccccc3)CC1)OC2c1ccc(F)cc1` (configuration not stated), the melting point was in the range of 86 to 88 °C.
Compound `O=C(O)[C@@H]1C[C@H](OS(=O)(=O)C2CCCCC2)CN1C(=O)c1ccccc1` had a melting point of 154 to 172 °C.
Compound `CC(=O)OC1CC2=CC(=NO)C3C4CCCC4(C)CCC3C2(C)C(OC(C)=O)C1` (configuration not stated) came in with a melting point of 236 to 238 °C.
Under `O=C(NCCCCCCCCCCCCNC(=O)c1ccc(OC(F)(F)F)cc1)c1ccc(OC(F)(F)F)cc1` stands 158 to 159 °C; under `CC(C)C[C@H](NC(=O)OCc1ccco1)C(=O)N[C@@H](Cc1ccccc1)C(=O)CSCc1ccco1`, 115 to 118 °C; under `Cc1ccc(C(=O)NCCc2ccccn2)c(Nc2ccc3[nH]ncc3c2)n1`, 98 to 99 °C.
The value for `CC(C)(NC(=O)OCc1ccccc1)C(=O)NCCCc1ccccc1` was 84 to 92 °C.
The value for `CCOC(=O)c1[nH]c2ccc(Cl)cc2c1Sc1ccccc1` was 160 to 162 °C; that for `CCCC1CCC=CCCCC(=O)OCCN1C(=O)OCC1c2ccccc2-c2ccccc21` (configuration not stated) was 148 to 150 °C.
As to `O=[N+]([O-])c1ccc(Cl)cc1NCC1CCCCC1`, the melting point is 73 °C.
Under `CC(=O)c1[nH]cnc1C` stands 140 to 142 °C; under `CC1=CC(c2cccc(C(F)(F)F)c2)C2=C(CCCC2=O)N1` (configuration not stated), 184 to 185 °C.
For `CC(=O)OCC(=O)C1CCC2C3CCC4CC(O)C(N5CCOC(C)(C)C5)CC4(C)C3CCC12C` (configuration not stated), the melting point lay within 174 to 175 °C.
The compound `CC12CCC(=O)C=C1CCC1C2CCC2(C)C(C(=O)NC3C4CC5CC(C4)CC3C5)CCC12` (configuration not stated) yielded a melting point of 244 to 246 °C.
Compound `O=C1Nc2ccc(F)cc2C(=O)N2CC[C@@H]12` registered a melting point of 216 to 217 °C.
The value for `O=C1NCC(=O)c2ncn(C3OC(COC(=O)c4ccccc4)C(OC(=O)c4ccccc4)C3OC(=O)c3ccccc3)c2N1` (configuration not stated) was 252 °C.
Consider `CCNCC1CCN(c2c(F)cc3c(=O)c(C(=O)O)cn(C4CCCC4)c3c2F)C1` (configuration not stated), for which the melting point fell in the range of 214 to 217 °C.
Consider `Cc1cc(C#N)cc(C(=O)c2c(C(C)C)c(=O)[nH]c(=O)n2CC2(CC(N)=O)CC2)c1`, for which the melting point was in the range of 283 to 285 °C.
Consider `N#CCCc1ccc(OCC2(O)CN3CCC2CC3)cc1` (configuration not stated), for which the melting point was in the range of 92 to 94 °C.
Under `C[C@H](C(=O)O)c1ccc2cc(OCCCCCCc3cccc(OCc4ccccc4)c3OCc3ccccc3)ccc2c1` stands 66 to 70 °C.
`C(=C(c1ccccc1)c1ccccc1)C1CCN(CCCCCCCCc2cccnc2)CC1` registered a melting point of 54 to 55 °C.
In the case of `N#Cc1ccc2c(c1)CCC(CO)O2` (configuration not stated), the melting point amounted to 85 °C.
The compound `COc1cccc2c1CCC=C2N1CCOCC1` gave a melting point of 80 to 90 °C.
Under `CCOC(=O)c1cn(-c2c[nH]nn2)c2cc(F)c(F)cc2c1=O` stands 298 °C.
The value for `Clc1cccc(Cn2ccc(CN3CCC(c4ccccc4)(c4ccccc4)CC3)n2)c1` was 136 to 137 °C; that for `COc1ccc(N(CC(=O)O)c2ccccc2)c(C(=O)O)c1` was 158 to 161 °C; that for `FC(F)(F)c1ccc2c(Cl)nccc2n1` was 90 °C.
Take `COc1ccc(CNC(=O)N2CCN(c3ncnc4cc(OC)c(OC)cc34)CC2)cc1`: the melting point lay in the range of 147 to 148 °C.
For the compound `COc1ccc(-c2ccncc2)cc1Br`, the melting point fell in the range of 82 to 84 °C.
`CN1Cc2c(-c3noc(CN)n3)ncn2-c2ccsc2C1=O` registered a melting point of 202 to 204 °C.
The compound `CC(C)(CCCC(=O)O)c1cc(C(=O)O)c(O)c(C(C)(C)CCCC(=O)O)c1` gave a melting point of 161 to 163 °C.
As to `CCOC(=O)c1cn(CC)c2nc(N3CCCC3)ncc2c1=O`, the melting point was 202 °C.
The value for `Cc1c(C)c2c(c(C)c1N)CC(C)(CI)O2` (configuration not stated) was 105 to 107 °C.
In turn, `O=C(Nc1ccc(Cl)cc1)Nc1c(C(O)(C(F)(F)F)C(F)(F)F)ccc2ccccc12` returned a melting point of 210 to 212 °C.
`CCCCCCCCCCCCCCCC(=O)N[C@@H](CSC[C@H](O)CO)C(=O)O` yielded a melting point of 110 °C.
Under `O=C(OCc1ccccc1O)c1cc(O)c2c(c1)C(=O)c1cccc(O)c1C2=O` stands 125 to 130 °C.
As for `Cc1cc(SC(C)C)c(NC(=O)CCCSc2nc3ccccc3o2)c(SC(C)C)n1`, the melting point lay in the range of 128 to 129 °C.
Regarding `O=C(/C=C/c1ccc(F)cc1)N1CCN2C(=O)OC(c3ccccc3)(c3ccccc3)C2C1` (configuration not stated), the melting point was in the range of 250 to 251 °C.
The compound `CCOC(=O)c1cn(-c2ccc(F)cc2F)c2nc(N3CCC(NC(C)=O)C3)c(F)cc2c1=O` (configuration not stated) showed a melting point of 233 to 236 °C.
Under `COc1ccc(-c2ccc(C(=O)Nc3ccc4cc(CN5CCCC5)cnc4c3)c(F)c2)cc1` stands 174 °C; under `CCC(C)Oc1ccccc1-c1ncc(C(N)=O)c(=O)[nH]1` (configuration not stated), 183 to 185 °C.
The compound `CC(=O)N1C(C)(C)CC(OC(=O)C(Cc2cc(C(C)(C)C)c(O)c(C(C)(C)C)c2)(Cc2cc(C(C)(C)C)c(O)c(C(C)(C)C)c2)C(C)=O)CC1(C)C` displayed a melting point of 165 to 166 °C.
`N#CCOS(=O)(=O)c1cccc([N+](=O)[O-])c1` had a melting point of 66 to 69 °C.
With `Cc1cc2c(-c3ccccc3)c3n(c(=O)c2cc1C)CCCC3O` (configuration not stated), the melting point is 210 to 212 °C.
In turn, `O=C(O)c1cc2c(s1)C(=O)CCC2` displayed a melting point of 174 to 175 °C.
Compound `COC(=O)c1ccc(OCCNC(=O)OCc2ccccc2)c(Cl)c1` yielded a melting point of 81 °C.
`N#CCOc1cccc(CN2C(=O)c3cccc(NC(=O)c4ccc(Cl)s4)c3C2=O)c1` returned a melting point of 164 °C.
On to `N#Cc1c(-c2ccccc2)sc2c1CNCC2c1ccccc1` (configuration not stated), for which the melting point amounted to 160 °C.
The value for `CC(=O)OCC1OC(n2cc(C3=C(c4c[nH]c5ncccc45)C(=O)N(COCc4ccccc4)C3=O)c3ccccc32)C(OC(C)=O)C(OC(C)=O)C1OC(C)=O` (configuration not stated) was 115 to 117 °C.
`CCCCCCO[C@H](C)C(=O)Oc1ccc(C(=O)O)cc1` registered a melting point of 67 to 72 °C.
Compound `CN=C(NCCCc1nc2cc(C3=NNC(=O)CC3C)ccc2[nH]1)NC(=O)c1ccccc1` (configuration not stated) displayed a melting point of 270 °C.
Turning to `COC(=O)CC(=O)NC(N)Cc1ccccc1` (configuration not stated), the melting point was 98 to 102 °C.
The value for `O=C(NCCN1CCCC1)N1CCN(c2ccccc2)CC1` was 81.5 to 84 °C; that for `CCOC(=O)CON(C)C(=S)Nc1ccc(Cl)cc1C` was 104 to 106 °C.
As to `CN(CCCNC(=S)c1cc(C(C)(C)C)c(O)c(C(C)(C)C)c1)CCOc1ccc2c(c1)OCO2`, the melting point was in the range of 114 to 115 °C.
Under `CCN1CNS(=O)(=O)c2sc(Cl)cc21` stands 119 to 120 °C.

The values are drawn from a melting point compilation (Tetko et al.; mined from patent text by program, amines drawn as free bases though some values may be those of a salt).
